According to patent US7759350B2, “Pyrimidine carboxamides” (Orchid Research Laboratories Ltd., priority 2005, dated 2010):

Experiments:
[1] = system: DU145; experiment: Anti-cancer screen (MTT), DU145; format: cell-based; settings: Homo sapiens, DU-145, 48 hours
[2] = system: TNF-α; experiment: In vitro measurement of TNF-α in human PBMC; format: cell-based; settings: at 1 μM, LPS
Procedure: In Vitro Measurement of Tumor Necrosis Factor Alpha (TNF-α)
This assay determines the effect of test compounds on the production of TNF-α in human Peripheral Blood Mononuclear Cells (PBMC). Compounds were tested for their ability to inhibit the activity of TNF-α in human PBMC. PBMC were isolated from blood (from healthy volunteers) using BD Vacutainer CPT™ (Cell preparation tube, BD Bio Science) and suspended in RPMI medium (Physiol. Res. 52; 593-598, 2003). The test compounds were pre-incubated with PBMC (0.5 million/incubation well) for 15 minutes at 37° C. and then stimulated with Lipopolysaccharide (Escherichia coli: B4; 1 μg/ml) for 18 hours at 37° C. in 5% CO2. The levels of TNF-α in the cell culture medium were estimated using enzyme linked Immunosorbent assay performed in a 96 well format as per the procedure of the manufacturer (R&D Systems, Inc. 614 McKinley Place Nebr., Minneapolis, Minn. 55413, USA).

[3] = system: NCI-H460; experiment: Anti-cancer screen (MTT), NCI-H460; format: cell-based; settings: Homo sapiens, NCI-H460; 48 hours, MTT
[4] = system: IL-1β; experiment: In vitro measurement of IL-1β in human PBMC; format: cell-based; settings: Conc. 0.1 μM, LPS
In short: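 Human PBMC (0.5 million/well) preincubated with compound 15 min at 37° C., then stimulated with E. coli LPS (1 μg/ml) for 18 h at 37° C. Cytokine in culture medium quantified by ELISA.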

[5] = system: TNF-α; experiment: LPS induced sepsis for measurement of TNF-α inhibition in mice; format: in vivo; settings: 50 mg/kg bw oral; female Swiss albino mice; serum 90 minutes after LPS
Procedure: LPS Induced Sepsis for Measurement of TNF-α Inhibition in Mice
The LPS induced sepsis model in mice was performed as described by Les sekut et al (J Lab Clin Med 1994; 124:813-20). Female Swiss albino mice were selected with their body weights being equivalent within each group. The mice were fasted for 20 hours with free access to water. The mice were dosed orally with the test compound suspended in vehicle containing 0.5% Tween 80 in 0.25% Carboxy-methylcellulose sodium salt. The control mice were administered the vehicle alone. After 30 minutes of oral dosing, the mice were injected with 500 μg of Lipopolysaccharide (Escherichia coli, LPS: B4 from Sigma) in phosphate buffer saline solution into the intraperitoneal cavity of the mice. After 90 minutes of LPS administration, the mice were bled via retro-orbital sinus puncture. Blood samples were stored overnight at 4° C. Serum samples were collected by centrifuging the samples at 4000 rpm for 15 minutes at 4° C. Immediately the serum samples were analysed for TNF-α levels, using commercially available mouse TNF-α ELISA kit (Amersham Biosciences) and assay was performed by the manufacturer instruction.

CNc1nc(-c2ccncc2)nc(SC)c1C(=O)Nc1ccc(OC)cc1 [Example 14, N-(4-Methoxyphenyl)-4-(methylamino)-6-(methylthio)-2-pyridin-4-ylpyrimidine-5-carboxamide]
GI50 [1]: 2.75 µM
inhibition at 1 µM [2]: 36.8%
GI50 [3]: 5.15 µM
IL-1β Inhibition (%) [4]: Not active
TNF-α Inhibition (%) at 50 mg/kg bw [5]: 18.74%
